# Values joined by “and” are separate entries in the source; they are usually repeats but may differ in a detail not shown here. Identical values can stand only once. Like-named read-outs stand apart in the source and are kept apart here.
# Assays:
# [1] = system: PG biosynthesis of human hypernephroma cells; assay: Conversion of exogenously added 14C-AA to its metabolites (radiothinlayer chromatography); assay type: cell-based; settings: for 14C-AA conversion to 12-HETE, Table IV / 14C-AA conversion to PGD2, Table IV / 14C-AA conversion to PGE2, Table IV / 14C-AA conversion to PGF2alpha, Table IV / 14C-AA conversion to TXB2, Table IV / AA (%) remaining, Table IV: individual cell lines
# [2] = system: human hypernephroma cells; assay: Cellular viability (phase-contrast microscopy and Trypan Blue exclusion); assay type: cell-based; settings: ASA incubation for 24 h
# [3] = system: PGE1-binding sites (3H-PGE1-receptors) on human hypernephroma cells; assay: Saturation binding of 3H-PGE1 to cultured hypernephroma cells (Scatchard analysis); settings: for Bmax, 3H-PGE1 binding, Table II: individual cell lines; for Bmax (binding capacity), 3H-PGE1 binding / Kd: mean of cell lines; for Kd: read-out: Kd (dissociation constant), 3H-PGE1 binding
# [4] = system: PG binding sites on human hypernephroma cells; assay: Time course of specific 3H-PG binding (association, dissociation); settings: 3H-iloprost, 3H-PGE1 each 84 nM, 3H-PGE2 45 nM; stable for at least 80 min
# [5] = system: PGE2-binding sites (3H-PGE2-receptors) on human hypernephroma cells; assay: Saturation binding of 3H-PGE2 to cultured hypernephroma cells (Scatchard analysis); settings: for Bmax, 3H-PGE2 binding, Table III: individual cell lines; for Bmax (binding capacity), 3H-PGE2 binding / Kd: mean of cell lines; for Kd: read-out: Kd (dissociation constant), 3H-PGE2 binding
# [6] = target: T1, PGI2-binding sites (3H-iloprost receptors) on human hypernephroma cells (Homo sapiens, UniProt P43119); assay: Saturation binding of 3H-iloprost to cultured hypernephroma cells (Scatchard analysis); settings: for Bmax (binding capacity), 3H-iloprost binding: mean of cell lines; for Bmax, 3H-iloprost binding, Table I: individual cell lines
# T1 construct: endogenous in cells; host or cells: primary cultures of human renal cell carcinoma (hypernephroma) cells, one line per patient
# T1 sequence (P43119 whole entry): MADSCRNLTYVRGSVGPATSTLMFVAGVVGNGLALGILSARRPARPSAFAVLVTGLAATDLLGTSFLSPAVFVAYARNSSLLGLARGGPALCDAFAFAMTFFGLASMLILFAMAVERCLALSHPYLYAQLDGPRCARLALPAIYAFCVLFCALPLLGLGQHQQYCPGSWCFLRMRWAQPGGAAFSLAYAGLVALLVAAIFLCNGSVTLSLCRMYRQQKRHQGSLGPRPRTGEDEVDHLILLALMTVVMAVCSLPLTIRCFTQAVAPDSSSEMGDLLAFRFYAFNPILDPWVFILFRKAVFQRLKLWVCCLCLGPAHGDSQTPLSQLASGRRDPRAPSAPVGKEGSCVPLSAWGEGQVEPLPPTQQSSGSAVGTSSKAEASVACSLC
# [7] = ASA-treated group (group 2), patients 1,3,4,6,8,9,11 in order
# [8] = ASA-treated group irradiated (group 4), patients 3,4,6,9,11 in order
# [9] = ASA-treated group (group 2), ASA 0.5 mg 10-6 cells for 24 h
# [10] = ASA-treated group irradiated (group 4)
# [11] = ASA-treated group irradiated (group 4), listed as 3H-PGE1
# [12] = control group (group 1), no ASA, no irradiation
# [13] = control group (group 1), no ASA, no irradiation, listed as 3H-PGE1
# [14] = control group irradiated (group 3), 60Co 1.0 Gy min-1 over 10 min, assay about 2 h after
smiles,measurement,setting,value
"CC(=O)Oc1ccccc1C(=O)O [ASA, acetylsalicylic acid]","14C-AA conversion to 12-HETE, Table IV",[1]; [7],6.9% and 4.2% and 7.3% and 5.5% and 5.3% and 4.9% and 8.8%
same,"14C-AA conversion to PGD2, Table IV",[1]; [7],1.3% and 0.9% and 0.2% and 0.5% and 0.4% and 0.6% and 0.8%
same,"14C-AA conversion to PGE2, Table IV",[1]; [7],1.8% (2×) and 1.1% and 2.2% and 0.7% and 1.5% and 1.3%
same,"14C-AA conversion to PGF2alpha, Table IV",[1]; [7],1.7% and 0.7% and 0.8% and 0.2% and 0.3% (2×) and 0.5%
same,"14C-AA conversion to TXB2, Table IV",[1]; [7],1.2% and 0.8% and 1.7% and 1.3% (2×) and 2.3% and 1.5%
same,"AA (%) remaining, Table IV",[1]; [7],66.5% and 78.2% and 72.9% and 78.5% (2×) and 82.8% and 81.0%
same,14C-AA conversion to PGF2alpha,"[1]; ASA-treated group (group 2), mean (control group […])",0.6%
same,14C-AA conversion to 12-HETE,"[1]; ASA-treated group (group 2), mean (control group 3.7)",6.1%
same,14C-AA conversion to TXB2,"[1]; ASA-treated group (group 2), mean (control group 8.0)",1.4%
same,"14C-AA conversion to 12-HETE, Table IV",[1]; [8],4.9% and 5.1% (2×) and 4.8% (2×)
same,"14C-AA conversion to PGD2, Table IV",[1]; [8],0.3% and 0.9% and 0.8% and 0.5% and 0.4%
same,"14C-AA conversion to PGE2, Table IV",[1]; [8],0.8% and 1.6% and 1.9% and 1.1% and 1.8%
same,"14C-AA conversion to PGF2alpha, Table IV",[1]; [8],0.5% and 0.9% and 0.2% and 0.8% and 0.4%
same,"14C-AA conversion to TXB2, Table IV",[1]; [8],1.3% and 1.2% and 1.1% and 1.5% and 0.6%
same,"AA (%) remaining, Table IV",[1]; [8],82.9% and 74.3% and 81.2% and 73.7% and 79.4%
same,14C-AA conversion to PGF2alpha,"[1]; ASA-treated group irradiated (group 4), mean (control irradiated 2.7)",0.6%
same,14C-AA conversion to PGD2,"[1]; ASA-treated group irradiated (group 4), mean (control irradiated 3.0)",0.6%
same,14C-AA conversion to 12-HETE,"[1]; ASA-treated group irradiated (group 4), mean (control irradiated 4.1)",4.9%
same,14C-AA conversion to TXB2,"[1]; ASA-treated group irradiated (group 4), mean (control irradiated 7.4)",1.1%
same,14C-AA conversion to PGE2,"[1]; ASA-treated group irradiated (group 4), mean (control irradiated 9.0)",1.4%
same,cellular viability,[2],unchanged
CCCCC[C@H](O)/C=C/[C@H]1[C@H](O)CC(=O)[C@@H]1CCCCCCC(=O)O [PGE1],"Bmax, 3H-PGE1 binding, Table II","[3]; ASA (group 2), patients 1,3,4,5,6,7,8,9,10,11 in order, listed as 3H-PGE1",811 fmol mg-1 protein and 923 fmol mg-1 protein and 1076 fmol mg-1 protein and 1019 fmol mg-1 protein and 1367 fmol mg-1 protein and 897 fmol mg-1 protein and 1773 fmol mg-1 protein and 736 fmol mg-1 protein and 1064 fmol mg-1 protein and 1171 fmol mg-1 protein
same,"Bmax (binding capacity), 3H-PGE1 binding",[3]; [9],1084 +/- 303 fmol mg-1 protein
same,"Bmax (binding capacity), 3H-PGE1 binding","[3]; ASA-treated group (group 2), ASA 0.5 mg 10-6 cells for 24 h, listed as 3H-PGE1",1084 fmol mg-1 protein
same,Kd,[3]; [9],2.8 ± 1.3 nM
same,"Bmax (binding capacity), 3H-PGE1 binding",[3]; [10],699 +/- 240 fmol mg-1 protein
same,"Bmax (binding capacity), 3H-PGE1 binding",[3]; [11],699 fmol mg-1 protein
same,Kd,[3]; [11],3 nM
same,"Bmax, 3H-PGE1 binding, Table II","[3]; control (group 1), patients 1,3,4,5,6,7,8,9,10,11 in order, listed as 3H-PGE1",781 fmol mg-1 protein and 372 fmol mg-1 protein and 978 fmol mg-1 protein and 911 fmol mg-1 protein and 694 fmol mg-1 protein and 893 fmol mg-1 protein and 1041 fmol mg-1 protein and 643 fmol mg-1 protein and 555 fmol mg-1 protein and 685 fmol mg-1 protein
same,"Bmax (binding capacity), 3H-PGE1 binding",[3]; [12],755 +/- 206 fmol mg-1 protein
same,"Bmax (binding capacity), 3H-PGE1 binding",[3]; [13],755 fmol mg-1 protein
same,Kd,[3]; [13],~4 nM
same,Kd,[3]; [12],3.7 ± 2.7 nM
same,"Bmax (binding capacity), 3H-PGE1 binding",[3]; [14],266 +/- 153 fmol mg-1 protein
same,"Bmax (binding capacity), 3H-PGE1 binding","[3]; control group irradiated (group 3), 60Co 1.0 Gy min-1 over 10 min, assay about 2 h after, listed as 3H-PGE1",266 fmol mg-1 protein
same,Kd,[3]; [14],5 ± 5 nM
same,"Bmax, 3H-PGE1 binding, Table II","[3]; irradiation, ASA (group 4), patients 3,6,7,9,10,11 in order, listed as 3H-PGE1",679 fmol mg-1 protein and 867 fmol mg-1 protein and 615 fmol mg-1 protein and 268 fmol mg-1 protein and 884 fmol mg-1 protein and 879 fmol mg-1 protein
same,"Bmax, 3H-PGE1 binding, Table II","[3]; irradiation, control (group 3), patients 3,6,7,9,10,11 in order, listed as 3H-PGE1",267 fmol mg-1 protein and 504 fmol mg-1 protein and 301 fmol mg-1 protein and 137 fmol mg-1 protein and 319 fmol mg-1 protein and 68 fmol mg-1 protein
same,time to reach binding equilibrium,[4],≤ 20 min
CCCCC[C@H](O)/C=C/[C@H]1[C@H](O)CC(=O)[C@@H]1C/C=C\CCCC(=O)O [PGE2],"Bmax, 3H-PGE2 binding, Table III","[5]; ASA (group 2), patients 1,3,4,5,6,8,9,10,11 in order, listed as 3H-PGE2",650 fmol mg-1 protein and 162 fmol mg-1 protein and 858 fmol mg-1 protein and 780 fmol mg-1 protein and 1104 fmol mg-1 protein and 986 fmol mg-1 protein and 666 fmol mg-1 protein and 324 fmol mg-1 protein and 441 fmol mg-1 protein
same,"Bmax (binding capacity), 3H-PGE2 binding",[5]; [9],663 +/- 309 fmol mg-1 protein
same,"Bmax (binding capacity), 3H-PGE2 binding","[5]; ASA-treated group (group 2), ASA 0.5 mg 10-6 cells for 24 h, listed as 3H-PGE2",663 fmol mg-1 protein
same,Kd,[5]; [9],2.2 ± 1.5 nM
same,"Bmax (binding capacity), 3H-PGE2 binding",[5]; [10],287 fmol mg-1 protein
same,Kd,[5]; [10],3.5 nM
same,"Bmax, 3H-PGE2 binding, Table III","[5]; control (group 1), patients 1,3,4,5,6,8,9,10,11 in order, listed as 3H-PGE2",563 fmol mg-1 protein and 143 fmol mg-1 protein and 478 fmol mg-1 protein and 650 fmol mg-1 protein and 930 fmol mg-1 protein and 438 fmol mg-1 protein and 534 fmol mg-1 protein and 313 fmol mg-1 protein and 398 fmol mg-1 protein
same,"Bmax (binding capacity), 3H-PGE2 binding",[5]; [12],494 +/- 221 fmol mg-1 protein
same,"Bmax (binding capacity), 3H-PGE2 binding","[5]; control group (group 1), no ASA, no irradiation, listed as 3H-PGE2",494 fmol mg-1 protein
same,Kd,[5]; [12],4.2 ± 2.5 nM
same,"Bmax (binding capacity), 3H-PGE2 binding",[5]; [14],148 +/- 66 fmol mg-1 protein
same,"Bmax (binding capacity), 3H-PGE2 binding","[5]; control group irradiated (group 3), 60Co 1.0 Gy min-1 over 10 min, assay about 2 h after, listed as 3H-PGE2",148 fmol mg-1 protein
same,Kd,[5]; [14],4.7 ± 3.6 nM
same,"Bmax, 3H-PGE2 binding, Table III","[5]; irradiation, ASA (group 4), patients 3,6,8,9,10,11 in order, listed as 3H-PGE2",181 fmol mg-1 protein and 336 fmol mg-1 protein and 338 fmol mg-1 protein and 466 fmol mg-1 protein and 232 fmol mg-1 protein and 170 fmol mg-1 protein
same,"Bmax, 3H-PGE2 binding, Table III","[5]; irradiation, control (group 3), patients 3,6,8,9,10,11 in order, listed as 3H-PGE2",63 fmol mg-1 protein and 209 fmol mg-1 protein and 218 fmol mg-1 protein and 112 fmol mg-1 protein and 96 fmol mg-1 protein and 189 fmol mg-1 protein
same,time to reach binding equilibrium,[4],≤ 30 min
CCCCC[C@H](O)/C=C/[C@@H]1[C@H]2C/C(=C/CCCC(=O)O)O[C@H]2C[C@H]1O [PGI2],"Bmax (binding capacity), 3H-iloprost binding",[6]; [12],693 +/- 164 fmol mg-1 protein
same,"Bmax (binding capacity), 3H-iloprost binding",[6]; [14],325 +/- 194 fmol mg-1 protein
CC#CCC(C)[C@H](O)/C=C/[C@@H]1[C@H]2C/C(=C/CCCC(=O)O)C[C@H]2C[C@H]1O (stereo partly shown) [iloprost],"Bmax, 3H-iloprost binding, Table I","[6]; ASA (group 2), patients 1,2,3,4,5,6,7,8,9,10,11 in order, listed as 3H-iloprost",813 fmol mg-1 protein and 855 fmol mg-1 protein and 987 fmol mg-1 protein and 960 fmol mg-1 protein and 916 fmol mg-1 protein and 1047 fmol mg-1 protein and 2024 fmol mg-1 protein and 1301 fmol mg-1 protein and 442 fmol mg-1 protein and 1023 fmol mg-1 protein and 861 fmol mg-1 protein
same,"Bmax (binding capacity), 3H-iloprost binding",[6]; [9],1021 fmol mg-1 protein
same,"Bmax (binding capacity), 3H-iloprost binding",[6]; [10],766 +/- 452 fmol mg-1 protein
same,"Bmax (binding capacity), 3H-iloprost binding","[6]; ASA-treated group irradiated (group 4), listed as 3H-iloprost",766 fmol mg-1 protein
same,"Bmax, 3H-iloprost binding, Table I","[6]; control (group 1), patients 1,2,3,4,5,6,7,8,9,10,11 in order, listed as 3H-iloprost",741 fmol mg-1 protein and 635 fmol mg-1 protein and 876 fmol mg-1 protein and 732 fmol mg-1 protein and 808 fmol mg-1 protein and 806 fmol mg-1 protein and 649 fmol mg-1 protein and 407 fmol mg-1 protein and 382 fmol mg-1 protein and 829 fmol mg-1 protein and 756 fmol mg-1 protein
same,"Bmax (binding capacity), 3H-iloprost binding",[6]; [12],693 fmol mg-1 protein
same,"Bmax (binding capacity), 3H-iloprost binding",[6]; [14],325 fmol mg-1 protein
same,"Bmax, 3H-iloprost binding, Table I","[6]; irradiation, ASA (group 4), patients 3,4,6,7,9,10,11 in order, listed as 3H-iloprost",489 fmol mg-1 protein and 354 fmol mg-1 protein and 867 fmol mg-1 protein and 1551 fmol mg-1 protein and 364 fmol mg-1 protein and 1162 fmol mg-1 protein and 576 fmol mg-1 protein
same,"Bmax, 3H-iloprost binding, Table I","[6]; irradiation, control (group 3), patients 3,4,6,7,9,10,11 in order, listed as 3H-iloprost",332 fmol mg-1 protein and 287 fmol mg-1 protein and 432 fmol mg-1 protein and 699 fmol mg-1 protein and 204 fmol mg-1 protein and 203 fmol mg-1 protein and 118 fmol mg-1 protein
same,time to reach binding equilibrium,[4],≤ 20 min

# From paper PMC1968618, “Acetylsalicylic acid (ASA) protects the prostaglandin-cAMP-system of human hypernephroma cells against irradiation-induced alterations” (British Journal of Cancer, 1993)
